Results taken from US9050285B2, “Recombinant bacterium capable of eliciting an immune response against Streptococcus pneumoniae” (The United States of America National Institutes of Health …, priority 2008, dated 2015).

Assays:
Type in all cases: cell-based
χ9633(pYA4088) = experiment: Minimum inhibitory concentrations of antibiotics for RASV-Sp strain χ9633(pYA4088); conditions: Salmonella Typhi strain χ9633(pYA4088)
Description: (§1) Master seed and working seed banks of each vaccine organism in separate vials have been prepared for frozen storage in vegetable-based cryopreservative. […] Antibiotic sensitivity testing has confirmed that these strains are sensitive to ciprofloxacin, ampicillin, ceftriaxone, trimethoprim/sulfamethoxazole (Table 13). Ampicillin, ciprofloxacin, ceftriaxone and trimethoprim/sulfamethoxazole are typically tested for minimum inhibitory concentrations (MICs) for Salmonella.

χ9640(pYA4088) = experiment: Minimum inhibitory concentrations of antibiotics for RASV-Sp strain χ9640(pYA4088); conditions: Salmonella Typhi strain χ9640(pYA4088); for MIC: Salmonella enterica, read-out: Minimum inhibitory concentration
Description: as §1

χ9639(pYA4088) = experiment: Minimum inhibitory concentrations of antibiotics for RASV-Sp strain χ9639(pYA4088); conditions: Salmonella Typhi strain χ9639(pYA4088); for MIC: Salmonella enterica, read-out: Minimum inhibitory concentration
Description: as §1

trimethroprim-sulfamethoxazole
Minimum inhibitory concentration (χ9633(pYA4088)): <20 µg/mL
Minimum inhibitory concentration (χ9640(pYA4088)): <20 µg/mL
Minimum inhibitory concentration (χ9639(pYA4088)): <20 µg/mL

CC1(C)S[C@@H]2[C@H](NC(=O)[C@H](N)c3ccccc3)C(=O)N2[C@H]1C(=O)O [ampicillin]
MIC (χ9640(pYA4088)): < 2 µg/mL
MIC (χ9639(pYA4088)): < 2 µg/mL

O=C(O)c1cn(C2CC2)c2cc(N3CCNCC3)c(F)cc2c1=O [ciprofloxacin]
MIC (χ9640(pYA4088)): < 0.25 µg/mL
MIC (χ9639(pYA4088)): < 0.25 µg/mL

CO/N=C(\C(=O)N[C@@H]1C(=O)N2C(C(=O)O)=C(CSc3nc(=O)c(=O)[nH]n3C)CS[C@H]12)c1csc(N)n1 [ceftriaxone]
MIC (χ9640(pYA4088)): < 1 µg/mL
MIC (χ9639(pYA4088)): < 1 µg/mL
